# Target: T1, TRPM8 (Homo sapiens, UniProt Q7Z2W7)
# T1 construct: purchased Eurofins (Cerep) item #3316
# Assay: TRPM8 Human Transient Potential Ion Channel Cell Based Agonist Calcium Flux Assay (Eurofins Cerep item #3316)
# Details: for Percent Agonist / Emax: control activator ligand icilin; for EC50: room temperature; for Emax: read-out: Percent Agonist
# Description: Compounds can be tested using the commercially available kit from Eurofins “TRPM8 Human Transient Potential Ion Channel Cell Based Agonist Calcium Flux Assay, Cerep” item #3316, or using the assay, referenced by Eurofins, and described in Behrendt et al. “Characterization of the mouse cold-menthol receptor TRPM8 and vanilloid receptor type-1 VR1 using a fluorometric imaging plate reader (FLIPR) assay,” Br J Pharmacol. 2004 Feb;141(4):737-45, which are each incorporated herein by reference. […] 4.
# The assay is done at room temperature and measures calcium flux.
# T1 sequence (Q7Z2W7 whole entry): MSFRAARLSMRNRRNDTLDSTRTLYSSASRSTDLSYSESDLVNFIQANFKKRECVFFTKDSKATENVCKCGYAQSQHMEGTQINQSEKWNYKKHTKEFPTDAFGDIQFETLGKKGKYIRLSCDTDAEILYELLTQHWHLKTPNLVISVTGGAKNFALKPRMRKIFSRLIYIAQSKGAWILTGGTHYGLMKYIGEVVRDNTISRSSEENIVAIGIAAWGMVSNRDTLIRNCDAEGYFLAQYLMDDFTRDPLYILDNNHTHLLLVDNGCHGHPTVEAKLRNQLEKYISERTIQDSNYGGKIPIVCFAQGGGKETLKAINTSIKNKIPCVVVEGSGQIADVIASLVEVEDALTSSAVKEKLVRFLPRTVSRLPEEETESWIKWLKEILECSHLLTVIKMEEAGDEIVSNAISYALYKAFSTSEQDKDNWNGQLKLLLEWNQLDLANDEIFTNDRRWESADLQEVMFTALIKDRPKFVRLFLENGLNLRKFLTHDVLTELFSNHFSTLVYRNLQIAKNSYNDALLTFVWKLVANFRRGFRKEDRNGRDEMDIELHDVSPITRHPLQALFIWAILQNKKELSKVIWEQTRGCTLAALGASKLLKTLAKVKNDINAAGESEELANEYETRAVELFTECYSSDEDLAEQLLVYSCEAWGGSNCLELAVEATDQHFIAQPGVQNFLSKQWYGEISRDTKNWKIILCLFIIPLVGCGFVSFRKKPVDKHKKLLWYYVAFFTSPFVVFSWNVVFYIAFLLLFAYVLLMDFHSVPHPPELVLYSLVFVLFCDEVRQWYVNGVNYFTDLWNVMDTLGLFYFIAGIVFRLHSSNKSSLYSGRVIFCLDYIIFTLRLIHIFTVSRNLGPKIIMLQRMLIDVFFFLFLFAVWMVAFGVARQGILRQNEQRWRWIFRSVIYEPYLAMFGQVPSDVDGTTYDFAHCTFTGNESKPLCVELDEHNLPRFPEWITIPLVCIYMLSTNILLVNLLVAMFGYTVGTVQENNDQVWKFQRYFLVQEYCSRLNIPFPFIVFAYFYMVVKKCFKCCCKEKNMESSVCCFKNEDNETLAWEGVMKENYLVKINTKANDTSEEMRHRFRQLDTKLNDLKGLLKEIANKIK
SMILES,Percent Agonist [%],EC50 [nM],Emax [%],EC50 (no unit printed in this row) [nM]
COCCOCCOc1cccc(NC(=O)[C@@H]2C[C@H](C)CC[C@H]2C(C)C)c1 [Compound 9],–,< 5000,> 75,–
COc1ccc(CNC(=O)[C@@H]2C[C@H](C)CC[C@H]2C(C)C)cc1 [Compound 10],–,< 5000,> 75,–
COCCN1CC(NC(=O)[C@@H]2C[C@H](C)CC[C@H]2C(C)C)C1 [Compound 26],–,< 1000,> 75,–
CC(C)[C@@H]1CC[C@@H](C)C[C@H]1C(=O)NC12CC(C#N)(C1)C2 [Compound 27],–,< 5000,> 75,–
CC(C)[C@@H]1CC[C@@H](C)C[C@H]1C(=O)NC1CN(CCO)C1 [Compound 28],–,< 10000,> 75,–
CC(C)[C@@H]1CC[C@@H](C)C[C@H]1C(=O)NC12CC(F)(C1)C2 [Compound 29],–,< 1000,> 100,–
CC(C)[C@@H]1CC[C@@H](C)C[C@H]1C(=O)NC1CN(CC(=O)OC(C)(C)C)C1 [Compound 30],–,> 10000,–,–
CC(C)[C@@H]1CC[C@@H](C)C[C@H]1C(=O)NC1CC2(COC2)C1 [Compound 32],–,< 2000,> 75,–
CC(C)[C@@H]1CC[C@@H](C)C[C@H]1C(=O)NC12CC(CO)(C1)C2 [Compound 33],–,< 1000,> 100,–
CC(C)[C@@H]1CC[C@@H](C)C[C@H]1C(=O)N[C@H]1CC[C@H](N)C1 [Compound 34],–,< 1000,> 75,–
CC(C)[C@@H]1CC[C@@H](C)C[C@H]1C(=O)NC1CCS(=O)(=O)CC1 [Compound 36],–,< 10000,> 75,–
COC(=O)NC12CC(NC(=O)[C@@H]3C[C@H](C)CC[C@H]3C(C)C)(C1)C2 [Compound 37],–,< 1000,> 100,–
COC(=O)CC12CC(NC(=O)[C@@H]3C[C@H](C)CC[C@H]3C(C)C)(C1)C2 [Compound 43],–,< 1000,> 75,–
CC(C)[C@@H]1CC[C@@H](C)C[C@H]1C(=O)NC1CC2(CCCO2)C1 (stereo partly drawn) [Compound 44],–,< 1000,> 75,–
CC(C)[C@@H]1CC[C@@H](C)C[C@H]1C(=O)NC12CC(CCO)(C1)C2 [Compound 45],–,< 1000,> 100,–
CON(C)C(=O)C12CC(NC(=O)[C@@H]3C[C@H](C)CC[C@H]3C(C)C)(C1)C2 [Compound 49],–,< 500,> 75,–
CO[C@H]1CC[C@H](NC(=O)[C@@H]2C[C@H](C)CC[C@H]2C(C)C)CC1 [Compound 50],–,< 500,> 100,–

SMILES,Percent Agonist [%],EC50 [nM],Emax [%],EC50 (no unit printed in this row) [nM]
COCCO[C@H]1CC[C@H](NC(=O)[C@@H]2C[C@H](C)CC[C@H]2C(C)C)CC1 [Compound 52],–,< 1000,> 100,–
CC(C)[C@@H]1CC[C@@H](C)C[C@H]1C(=O)NC12CC(C(=O)O)(C1)C2 [Compound 53],–,> 10000,–,–
CC(C)[C@@H]1CC[C@@H](C)C[C@H]1C(=O)NC1CCN(C)CC1 [Compound 54],–,> 10000,> 75,–
CC(C)[C@@H]1CC[C@@H](C)C[C@H]1C(=O)NCC1COC1 [Compound 56],–,< 10000,> 75,–
COC(=O)C12CCC(NC(=O)[C@@H]3C[C@H](C)CC[C@H]3C(C)C)(CC1)CC2 [Compound 57],–,< 1000,> 75,–
CC(C)[C@@H]1CC[C@@H](C)C[C@H]1C(=O)NC12CCC(C(F)(F)F)(CC1)C2 [Compound 59],–,< 1000,> 75,–
COC(=O)c1cc(NC(=O)[C@@H]2C[C@H](C)CC[C@H]2C(C)C)sn1 [Compound 62],–,< 500,> 75,–
CC(C)[C@@H]1CC[C@@H](C)C[C@H]1C(=O)Nc1cc(C(=O)O)ns1 [Compound 64],–,> 10000,–,–
CC(C)[C@@H]1CC[C@@H](C)C[C@H]1C(=O)Nc1ccccc1CN(C)C [Compound 65],–,< 1000,> 50,–
COC(=O)Cn1cc(NC(=O)[C@@H]2C[C@H](C)CC[C@H]2C(C)C)cn1 [Compound 68],–,< 7500,> 75,–
CC(C)[C@@H]1CC[C@@H](C)C[C@H]1C(=O)NC(=N)N [Compound 69],–,–,> 75,< 10000
CC(C)[C@@H]1CC[C@@H](C)C[C@H]1C(=O)Nc1cnn(CCO)c1 [Compound 70],–,< 1000,> 75,–
COC(=O)c1cc(NC(=O)[C@@H]2C[C@H](C)CC[C@H]2C(C)C)ccn1 [Compound 72],–,< 5000,> 75,–
COc1ccc(NC(=O)[C@@H]2C[C@H](C)CC[C@H]2C(C)C)nc1Cl [Compound 75],–,< 5000,> 75,–
CC(C)[C@@H]1CC[C@@H](C)C[C@H]1C(=O)Nc1ccnc(CN(C)C)c1 [Compound 77],–,< 5000,> 50,–
COC(=O)c1ccc(NC(=O)[C@@H]2C[C@H](C)CC[C@H]2C(C)C)cn1 [Compound 78],–,< 500,> 75,–
CC(C)[C@@H]1CC[C@@H](C)C[C@H]1C(=O)Nc1ccc(B2OC(C)(C)C(C)(C)O2)cn1 [Compound 79],–,< 2000,> 75,–

# Next, values leading:
Percent Agonist [%],EC50 [nM],Emax [%],EC50 (no unit printed in this row) [nM],SMILES
>50,< 100,–,–,CC(C)[C@@H]1CC[C@@H](C)C[C@H]1C(=O)NC1CC2C(C1)C2(F)F (stereo partly drawn) [92 or 102]
>75,< 500,–,–,CC(C)[C@@H]1CC[C@@H](C)C[C@H]1C(=O)NC1CC2C(C1)C2(F)F (stereo partly drawn) [102 or 92]
100,24,–,–,COc1ccc(NC(=O)[C@@H]2C[C@H](C)CC[C@H]2C(C)C)cc1 [Compound 1]
–,< 500,> 100,–,CC(C)[C@@H]1CC[C@@H](C)C[C@H]1C(=O)Nc1ccc(N2CCN(C)CC2)cc1 [Compound 2]
–,< 500,> 75,–,COCCOc1ccc(NC(=O)[C@@H]2C[C@H](C)CC[C@H]2C(C)C)cc1 [Compound 3]
–,< 100,> 50,–,CC(C)[C@@H]1CC[C@@H](C)C[C@H]1C(=O)Nc1ccc2c(c1)B(O)OC2 [Compound 4]
–,< 500,> 75,–,COCCOCCOc1ccc(NC(=O)[C@@H]2C[C@H](C)CC[C@H]2C(C)C)cc1 [Compound 5]
–,< 100,> 75,–,CC(C)[C@@H]1CC[C@@H](C)C[C@H]1C(=O)Nc1ccc(C2CC2)cc1 [Compound 6]
–,< 500,> 75,–,CC(C)[C@@H]1CC[C@@H](C)C[C@H]1C(=O)Nc1ccc(OCCN(C)C)cc1 [Compound 11]
–,< 100,> 75,–,CC(C)[C@@H]1CC[C@@H](C)C[C@H]1C(=O)Nc1ccc(CO)cc1 [Compound 15]
–,< 100,> 75,–,CC(C)[C@@H]1CC[C@@H](C)C[C@H]1C(=O)Nc1ccc(CCO)cc1 [Compound 17]
–,< 100,> 50,–,CC(C)[C@@H]1CC[C@@H](C)C[C@H]1C(=O)Nc1ccc(N2CCOCC2)cc1 [Compound 18]
–,< 500,> 75,–,CC(C)[C@@H]1CC[C@@H](C)C[C@H]1C(=O)Nc1ccc(OCCN2CCCC2)cc1 [Compound 19]
–,< 500,> 100,–,CC(C)[C@@H]1CC[C@@H](C)C[C@H]1C(=O)Nc1ccc(C2(CCO)COC2)cc1 [Compound 20]
–,< 100,> 75,–,CC(C)[C@@H]1CC[C@@H](C)C[C@H]1C(=O)Nc1ccc(C2(O)COC2)cc1 [Compound 21]
–,< 500,> 100,–,CC(C)[C@@H]1CC[C@@H](C)C[C@H]1C(=O)Nc1ccc(B2OC(C)(C)C(C)(C)O2)cc1 [Compound 22]

Percent Agonist [%],EC50 [nM],Emax [%],EC50 (no unit printed in this row) [nM],SMILES
–,< 500,> 75,–,CC(C)[C@@H]1CC[C@@H](C)C[C@H]1C(=O)Nc1cccc(C2(O)COC2)c1 [Compound 23]
–,< 500,> 100,–,CCOC(=O)CC1(c2ccc(NC(=O)[C@@H]3C[C@H](C)CC[C@H]3C(C)C)cc2)COC1 [Compound 24]
–,< 100,> 75,–,COC12CC(NC(=O)[C@@H]3C[C@H](C)CC[C@H]3C(C)C)(C1)C2 [Compound 25]
–,< 100,> 75,–,COC(=O)C12CC(NC(=O)[C@@H]3C[C@H](C)CC[C@H]3C(C)C)(C1)C2 [Compound 31]
–,< 100,> 75,–,COCC12CC(NC(=O)[C@@H]3C[C@H](C)CC[C@H]3C(C)C)(C1)C2 [Compound 35]
–,< 500,> 75,–,CC(C)[C@@H]1CC[C@@H](C)C[C@H]1C(=O)NC1COC1 [Compound 38]
–,< 500,> 100,–,CC(C)[C@@H]1CC[C@@H](C)C[C@H]1C(=O)NC12CCC(CO)(CC1)C2 [Compound 46]
–,< 500,> 100,–,CC(C)[C@@H]1CC[C@@H](C)C[C@H]1C(=O)NC12CC(NC(=O)CO)(C1)C2 [Compound 47]
–,< 500,> 50,–,COC1CC(NC(=O)[C@@H]2C[C@H](C)CC[C@H]2C(C)C)C1 (stereo partly drawn) [Compound 48]
–,< 100,> 75,–,CC(C)[C@@H]1CC[C@@H](C)C[C@H]1C(=O)NC12CC(C(=O)OC(C)(C)C)(C1)C2 [Compound 51]
–,< 100,> 75,–,COC12CCC(NC(=O)[C@@H]3C[C@H](C)CC[C@H]3C(C)C)(CC1)CC2 [Compound 55]
–,< 100,> 75,–,CNC(=O)c1cc(OC)ccc1NC(=O)[C@@H]1C[C@H](C)CC[C@H]1C(C)C [Compound 61]
–,< 100,> 75,–,CC(C)[C@@H]1CC[C@@H](C)C[C@H]1C(=O)Nc1ccccc1CCN [Compound 67]
–,< 100,> 50,–,CC(C)[C@@H]1CC[C@@H](C)C[C@H]1C(=O)Nc1ccc(N2CCOCC2)nc1 [Compound 73]
–,< 100,> 50,–,COc1ccc(NC(=O)[C@@H]2C[C@H](C)CC[C@H]2C(C)C)cn1 [Compound 74]
–,< 100,> 50,–,CCOc1ccc(NC(=O)[C@@H]2C[C@H](C)CC[C@H]2C(C)C)cn1 [Compound 76]

# Source: patent publication US20240360075A1, “N-SUBSTITUTED C6 CYCLYL CARBOXAMIDE COMPOUNDS AND USES THEREOF” (ALCON INC., priority 2023, published 2024)
